Test results as given in patent US11046709B2, “Fused 1,4-diazepines as BET bromodomain inhibitors” (THE REGENTS OF THE UNIVERSITY OF MICHIGAN, priority 2017, dated 2021).

Each compound was assayed against T1, recombinant BRD4 BD2 (Homo sapiens, UniProt O60885) (assay: Competitive fluorescence-polarization (FP) binding assay, BRD4 BD2).
T1 construct: for recombinant BRD4 BD1 and BRD4 BD2 proteins
Procedure: Fluorescence Polarization (FP) competitive binding studies were carried out using a FAM labeled fluorescent probe, see, e.g., Cpd. No. 350 of US 2014/0256706, to determine binding affinities of representative Compounds of the Disclosure for recombinant BRD4 BD1 and BRD4 BD2 proteins. Equilibrium dissociation constants (Kd) values of the fluorescent probe to BRD4 BD1 and BD2 proteins were determined from protein saturation experiments by monitoring the total fluorescence polarization of mixtures composed with the fluorescent probe at a fixed concentration and proteins with increasing concentrations up to full saturation. Serial dilutions of testing proteins were mixed with the fluorescent probe to a final volume of 200 μl in the assay buffer (100 mM phosphate buffer, pH=6.5, 0.01% Triton X-100 (Sigma, 282103) being added right before assays). Final fluorescent probe concentration was 1.5 nM for both proteins. Plates were incubated at room temperature for 30 minutes with gentle shaking to assure equilibrium. FP values in millipolarization units (mP) were measured using the Infinite M-1000 plate reader (Tecan U.S., Research Triangle Park, N.C.) in Microfluor 1 96-well, black, round-bottom plates (Thermo Scientific, Waltham, Mass.) at an excitation wavelength of 485 nm and an emission wavelength of 530 nm. Kd values of the fluorescent probe, which were calculated by fitting the sigmoidal dose-dependent FP increases as a function of protein concentrations using Graphpad Prism 6.0 software (Graphpad Software, San Diego, Calif.), are 5.5 and 3.0 nM to BDR4 BD1 and 2, respectively.
The IC50 and Ki values of compounds were determined in a competitive binding experiment. See US 2014/0256706. Mixtures of 10 μl of the tested compounds in assay buffer with 40% Ethylene Glycol and 190 μl of preincubated protein/probe complex solution in the assay buffer (100 mM potassium phosphate, pH 6.5, 0.01% Triton X-100) were added into assay plates which were incubated at room temperature for 30 minutes with gentle shaking. Final concentrations of proteins were 10 and 6 nM in assays for BRD4 BD1 and BD2, respectively. Final probe concentration is 1.5 nM in both assays. Negative controls containing protein/probe complex only (equivalent to 0% inhibition), and positive controls containing only free probes (equivalent to 100% inhibition), were included in each assay plate. FP values were measured as described above. IC50 values were determined by nonlinear regression fitting of the competition curves. Instead of being calculated from IC50 values as described before. Ki values of competitive inhibitors were obtained directly by nonlinear regression fitting as well, based upon the Kd values of the probe to different proteins, and concentrations of the proteins and probes in the competitive assays (US 2014/0256706; Wang, FEBS Lett. 360:111 (1995); Zhang et al., Analytical Biochemistry, 331:138 (2004)).
Representative compounds in Table 5 were evaluated for their binding affinities to BRD4 BD1 and BD2 proteins using the Competitive Fluorescence-Polarization (FP) Assays described in Example 6, with the data included in Table 6.

Cc1c(C#Cc2nccs2)sc2c1C(c1ccc(Cl)cc1)=N[C@@H](C)c1nnc(C)n1-2 [Cpd. No. 35, (S)-4-(4-chlorophenyl)-3,6,9-trimethyl-2-(thiazol-2-ylethynyl)-6H-thieno[3,2-f][1,2,4]triazolo[4,3-a][1,4]diazepine] and Cc1c(C#Cc2cncs2)sc2c1C(c1ccc(Cl)cc1)=N[C@@H](C)c1nnc(C)n1-2 [Cpd. No. 34, (S)-4-(4-chlorophenyl)-3,6,9-trimethyl-2-(thiazol-5-ylethynyl)-6H-thieno[3,2-f][1,2,4]triazolo[4,3-a][1,4]diazepine] are within 1.5-fold of each other in IC50: 22 nM for the first, 21.8 nM for the second.

First: Cc1c(C#CC2CCCC2)sc2c1C(c1ccc(Cl)cc1)=N[C@@H](C)c1nnc(C)n1-2 [Cpd. No. 29, (S)-4-(4-chlorophenyl)-2-(cyclopentylethynyl)-3,6,9-trimethyl-6H-thieno[3,2-f][1,2,4]triazolo[4,3-a][1,4]diazepine]
Second: Cc1c(C#CCN2CCN(C)CC2)sc2c1C(c1ccc(Cl)cc1)=N[C@@H](C)c1nnc(C)n1-2 [Cpd. No. 33, (S)-4-(4-chlorophenyl)-3,6,9-trimethyl-2-(3-(4-methylpiperazin-1-yl)prop-1-yn-1-yl)-6H-thieno[3,2-f][1,2,4]triazolo[4,3-a][1,4]diazepine]
The IC50 of the first is 4.1-fold lower: 10.3 nM for the first, 42.2 nM for the second.

Going from Cc1c(C#Cc2cncn2C)sc2c1C(c1ccc(Cl)cc1)=N[C@@H](C)c1nnc(C)n1-2 [Cpd. No. 30, (S)-4-(4-chlorophenyl)-3,6,9-trimethyl-2-((1-methyl-1H-imidazol-5-yl)ethynyl)-6H-thieno[3,2-f][1,2,4]triazolo[4,3-a][1,4]diazepine] to Cc1c(C#Cc2cn[nH]c2)sc2c1C(c1ccc(Cl)cc1)=N[C@@H](C)c1nnc(C)n1-2 [Cpd. No. 22, (S)-2-((1H-pyrazol-4-yl)ethynyl)-4-(4-chlorophenyl)-3,6,9-trimethyl-6H-thieno[3,2-f][1,2,4]triazolo[4,3-a][1,4]diazepine], the IC50 falls from 13.5 nM to 7.68 nM (1.8-fold). The second is the more potent here.

COc1ccc(C#Cc2sc3c(c2C)C(c2ccc(Cl)cc2)=N[C@@H](C)c2nnc(C)n2-3)nc1 [Cpd. No. 36, (S)-4-(4-chlorophenyl)-2-((5-methoxypyridin-2-yl)ethynyl)-3,6,9-trimethyl-6H-thieno[3,2-f][1,2,4]triazolo[4,3-a][1,4]diazepine] and Cc1c(C#Cc2ccc(N)cn2)sc2c1C(c1ccc(Cl)cc1)=N[C@@H](C)c1nnc(C)n1-2 [Cpd. No. 32, (S)-6-((4-(4-chlorophenyl)-3,6,9-trimethyl-6H-thieno[3,2-f][1,2,4]triazolo[4,3-a][1,4]diazepin-2-yl)ethynyl)pyridin-3-amine] are within 1.5-fold of each other in IC50: 11.7 nM for the first, 9.87 nM for the second.

Going from Cc1c(C#Cc2cn[nH]c2)sc2c1C(c1ccc(Cl)cc1)=NCc1nnc(C)n1-2 [Cpd. No. 21, 2-((1H-pyrazol-4-yl)ethynyl)-4-(4-chlorophenyl)-3,9-dimethyl-6H-thieno[3,2-f][1,2,4]triazolo[4,3-a][1,4]diazepine] to Cc1c(C#Cc2ccc(F)cn2)sc2c1C(c1ccc(Cl)cc1)=N[C@@H](C)c1nnc(C)n1-2 [Cpd. No. 31, (S)-4-(4-chlorophenyl)-2-((5-fluoropyridin-2-yl)ethynyl)-3,6,9-trimethyl-6H-thieno[3,2-f][1,2,4]triazolo[4,3-a][1,4]diazepine], the IC50 falls from 37.4 nM to 19.5 nM (1.9-fold).
